Like-named read-outs stand apart in the source and are kept apart here.
Columns and labels:
[1] = test system: human T-cell lymphoblastic leukemic lymphoma xenografts (CCRF-CEM); assay: CCRF-CEM xenograft in nude mice; type: in vivo
Description: (§1) Athymic nude mice bearing the nu/nu gene were used for human breast tumor MX-1 xenograft. Outbred Swiss-background mice were obtained from Charies River Breeding Laboratories. Male mice 8 weeks old or older weighing 22 g or more were used for most experiments. Drug was administrated via the tail vein by i.v. injection. Tumor volumes were assessed by measuring length×width×height (or width) by using caliper. Vehicle used was 20 μl DMSO in 180 μl saline. All animal studies were conducted in accordance with the guidelines of the National Institutes of Health Guide for the Care and Use of Animals and the protocol approved by the Memorial Sloan-Kettering Cancer Center's Institutional Animal Care and Use Committee.
Table 6 summarizes data related to the therapeutic effects and toxicity of compound 37 in nude mice bearing human T-cell leukemic lymphoma CCRF-CEM xenografts. About 70% of average tumor sized was reduced at the dose of 2 mg/kg (Q3D×5).

CCRF-CEM/Taxol = assay: XTT cytotoxicity assay, taxol-resistant subline; type: cell-based, human
Description: (§2) The effects of the compounds on cell growth were determined in all human tumor cells (i.e. T-cell acute lymphocytic leukemia CCRF-CEM), in a 72 h incubation, by XTT-tetrazolium assay, as described by Scudiero et al., Cancer Res. 1988, 48, 4827-4833. After the addition of phenazine methosulfate-XTT solution at 37° C. for 6 h, absorbance at 450 and 630 nm was detected on a microplate reader (EL 340; Bio-Tek Instruments Inc., Winooski, Vt.). Six to seven concentrations of each compound were used. The IC50 and dose-effect relationships of the compounds for antitumor activity were calculated by a median-effect plot (see, e.g., Chou et al. Adv. Enzyme Regul. 1984, 22, 27-55) using a computer program on an IBM-PC workstation (see, e.g., Chou et al. Dose-Effect Analysis with Microcomputers: Quantitation of ED50, LD50, Synergism, Antagonism, Low-Dose Risk, Receptor-Ligands Binding and Enzyme Kinetics; Biosoft: Cambridge, U.K., 1987).
(§3) Data summarizing the growth inhibition of human lymphoblastic leukemic cells (CCRF-CEM) and its drug-resistant sublines (resistant to vinblastine and taxol, CCRF-CEM/VBL and CCRF-CEM/taxol, respectively) by compound 37 is shown in Table 4.

DNA = DNA binding observed in the Topo II relaxation comparison; details: seen in Topo II relaxation comparison
CCRF-CEM/VBL = assay: XTT cytotoxicity assay, vinblastine-resistant subline; type: cell-based, human
Description: as §2, §3

Topo II = assay: Topo II-mediated relaxation of pRYG-DNA; type: biochemical
HCT-116 = assay: SRB cytotoxicity assay, solid tumor cells HCT-116; type: cell-based; details: Homo sapiens, HCT-116, 72 h, read-out: IC50 HCT-116
[2] = test system: human mammary carcinoma (MX-1) xenografts; assay: MX-1 xenograft in nude mice; type: in vivo; details: for Average Body Weight: D11 (start of treatment, baseline weight)
Description: as §1

[3] = test system: human lymphoblastic leukemic cells (CCRF-CEM); assay: XTT-tetrazolium cytotoxicity assay, CCRF-CEM; type: cell-based; details: for IC50: Homo sapiens, 72 h
Description: as §2

A549 = assay: SRB cytotoxicity assay, solid tumor cells A549; type: cell-based, human; details: for IC50: Homo sapiens, A549, SRB
[4] = number in bracket, ratio of IC50's
[5] = 3 mg/kg Q4Dx5 i.v., column D17, marked (D15)
[6] = 3 mg/kg Q4Dx5 i.v., column D20, marked (D19)

OCc1cc(Nc2c3ccccc3nc3ccccc23)cc(OCCN(CCCl)CCCl)c1 [Compound 37, (3-(Acridin-9-ylamino)-5-{2-[bis(2-chloroethyl)amino]ethoxy}phenyl)methanol]
average tumor size reduced ([1]; 2 mg/kg (Q3D×5)): About 70% | Average Body Weight ([1]; 2 mg/kg Q3Dx5 i.v., D10 (start of treatment, baseline weight)): 29.4 gm | Average Body Weight Change ([1]; 2 mg/kg Q3Dx5 i.v., D13): −1.1 gm | Average Body Weight Change ([1]; 2 mg/kg Q3Dx5 i.v., D16): −4.2 gm | Average Tumor Size (T/C) ([1]; 2 mg/kg Q3Dx5 i.v., D16): 0.47 | Average Body Weight Change ([1]; 2 mg/kg Q3Dx5 i.v., D19): −3.3 gm | Average Tumor Size (T/C) ([1]; 2 mg/kg Q3Dx5 i.v., D19): 0.34 | Average Body Weight Change ([1]; 2 mg/kg Q3Dx5 i.v., D22): −5.9 gm | Average Tumor Size (T/C) ([1]; 2 mg/kg Q3Dx5 i.v., D22): 0.33 | Average Body Weight Change ([1]; 2 mg/kg Q3Dx5 i.v., D25): −6.8 gm | Average Tumor Size (T/C) ([1]; 2 mg/kg Q3Dx5 i.v., D25): 0.34 | Tumor free ([1]; 2 mg/kg Q3Dx5 i.v., animals tumor free/total): 0/3 | Toxicity (death) ([1]; 2 mg/kg Q3Dx5 i.v., deaths/total): 0/3 | cross-resistance to taxol (CCRF-CEM/Taxol; CCRF-CEM/taxol vs CCRF-CEM): does not develop cross-resistance | IC50 (CCRF-CEM/Taxol; Homo sapiens, CCRF-CEM, 72 h, read-out: IC50 CCRF-CEM/Taxol): 34 ± 13 nM | folds of resistance CCRF-CEM/Taxol vs CCRF-CEM parent cells (CCRF-CEM/Taxol; [4]): 1.3 × | binding to DNA (DNA): binds relatively tightly to DNA | cross-resistance to vinblastine (CCRF-CEM/VBL; CCRF-CEM/VBL vs CCRF-CEM): does not develop cross-resistance | IC50 (CCRF-CEM/VBL; Homo sapiens, CCRF-CEM, 72 h, read-out: IC50 CCRF-CEM/VBL): 7.5 nM | folds of resistance CCRF-CEM/VBL vs CCRF-CEM parent cells (CCRF-CEM/VBL; [4]): 0.53 × | Topo II-mediated relaxation of pRYG-DNA (Topo II): inhibited DNA relaxation | IC50 (HCT-116): 5.5 ± 1 nM | Average Body Weight ([2]; 3 mg/kg Q4Dx5 i.v.): 30.1 gm | Average Body Weight Change ([2]; 3 mg/kg Q4Dx5 i.v., D14): −3.5 gm | Average Body Weight Change ([2]; 3 mg/kg Q4Dx5 i.v., D23): −7.2 gm | Average Tumor Size (T/C) ([2]; 3 mg/kg Q4Dx5 i.v., D23): 0.01 | Tumor free ([2]; 3 mg/kg Q4Dx5 i.v., animals tumor free/total (D27, 28)): 2/3 | Average Body Weight Change [2, 5]: −3.3 gm | Average Tumor Size (T/C) [2, 5]: 0.26 | Average Body Weight Change [2, 6]: −4.7 gm | Average Tumor Size (T/C) [2, 6]: 0.03 | Average Body Weight Change ([2]; 3 mg/kg Q4Dx5 i.v., column D26, marked (D27)): −8.8 gm | Toxicity (death) ([2]; 3 mg/kg Q4Dx5 i.v., deaths/total (D27, 28, 29)): 3/3 | mice becoming tumor-free ([2]; 1-2 mg/kg (Q3DX7) or 3 mg/kg (Q4D×5), intravenous injection, n=3): 66.7% | Average Body Weight ([2]; 1-2 mg/kg Q3Dx7 i.v.): 28.3 gm | Average Body Weight Change ([2]; 1-2 mg/kg Q3Dx7 i.v., D14): +1.2 gm | Average Body Weight Change ([2]; 1-2 mg/kg Q3Dx7 i.v., D17): −1.4 gm | Average Tumor Size (T/C) ([2]; 1-2 mg/kg Q3Dx7 i.v., D17): 0.37 | Average Body Weight Change ([2]; 1-2 mg/kg Q3Dx7 i.v., D20): −3.0 gm | Average Tumor Size (T/C) ([2]; 1-2 mg/kg Q3Dx7 i.v., D20): 0.17 | Average Body Weight Change ([2]; 1-2 mg/kg Q3Dx7 i.v., D23): −3.0 gm | Average Tumor Size (T/C) ([2]; 1-2 mg/kg Q3Dx7 i.v., D23): 0.14 | Average Body Weight Change ([2]; 1-2 mg/kg Q3Dx7 i.v., D26): −3.9 gm | Tumor free ([2]; 1-2 mg/kg Q3Dx7 i.v., animals tumor free/total (D32.32)): 2/3 | Toxicity (death) ([2]; 1-2 mg/kg Q3Dx7 i.v., deaths/total): 0/3 | cytotoxicity relative to AHMA [3]: about 79 fold | IC50 [3]: 7 nM | IC50 ([3]; read-out: IC50 CCRF-CEM): 9.5 ± 2.5 nM | IC50 (A549; 72 hours incubation, read-out: IC50 A549): 5.6 ± 1.2 nM | IC50 (A549; incubation for 3 hours, washed, then incubated for a total of 72 hours (footnote b), read-out: IC50 A549 after washing): 5 nM | alteration of potency when drug washed away (A549; washed away after incubation for 24 h): no alteration of the potency
